Experiment [1] deals with Cholinesterase (Mus musculus) (UniProt Q03311). Briefly: Inhibition of cholinesterase in mouse skeletal muscle at 10 uM/ml. To be noted: Muscle tissue.
Experiment [2] shares this target. Description: Inhibition of cholinesterase in mouse skeletal muscle at 2 uM/ml. It counts as tissue-based. To be noted: Muscle tissue.

For two molecules, Activity results are on record in ChEMBL document CHEMBL1149073, “Alkaloids from Lycopodium casuarinoides” (J Nat Prod, 1994).

Active and inactive are the calls of the source. No cut-off for these calls is given here.

Sequence of Cholinesterase (Mus musculus) (Q03311 whole entry): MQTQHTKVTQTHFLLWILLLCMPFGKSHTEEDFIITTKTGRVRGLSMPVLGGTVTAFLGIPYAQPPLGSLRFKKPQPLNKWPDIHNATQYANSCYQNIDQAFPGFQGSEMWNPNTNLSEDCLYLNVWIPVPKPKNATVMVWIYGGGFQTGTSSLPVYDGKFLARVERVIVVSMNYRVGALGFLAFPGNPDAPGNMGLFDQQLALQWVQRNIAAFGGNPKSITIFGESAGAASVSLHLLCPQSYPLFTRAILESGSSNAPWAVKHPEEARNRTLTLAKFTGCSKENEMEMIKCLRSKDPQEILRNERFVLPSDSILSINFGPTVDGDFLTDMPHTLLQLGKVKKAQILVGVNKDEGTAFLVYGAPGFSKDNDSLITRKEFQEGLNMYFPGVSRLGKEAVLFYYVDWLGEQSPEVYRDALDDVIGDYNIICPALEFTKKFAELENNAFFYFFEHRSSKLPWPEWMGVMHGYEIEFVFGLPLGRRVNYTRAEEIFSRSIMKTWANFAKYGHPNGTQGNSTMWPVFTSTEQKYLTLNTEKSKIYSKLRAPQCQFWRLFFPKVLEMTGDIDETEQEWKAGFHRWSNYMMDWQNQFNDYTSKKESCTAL

As for `C=C[C@@H]1[C@H]2C=C(C)C[C@]1(N(C)C)c1ccc(=O)[nH]c1C2`, the outcome in experiment [1] was inactive. As for `C=C[C@@H]1[C@H]2C=C(C)C[C@]1(NC)c1ccc(=O)[nH]c1C2`, the result in experiment [2] was Active.
